Data published in patent US6737383B1, “Herbicidal oxadiazolidines” (priority 1999, dated 2004).

How the values were obtained:
purple nutsedge = assay: Test B pre/postemergence purple nutsedge; assay type: in vivo, Cyperus rotundus
How it was run: (§1)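 Response is a visual 0-to-10 score relative to untreated plants, where 0 means no effect and 10 means complete control, taken twelve to sixteen days after application. Treatments went onto soil at planting and onto foliage of 1- to 4-leaf plants, using a surfactant-containing non-phytotoxic solvent.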

morningglory = assay: Test B pre/postemergence morningglory; assay type: in vivo, Ipomoea hederacea
How it was run: as §1

soybean = assay: Test B pre/postemergence soybean; assay type: in vivo, Glycine max
How it was run: as §1

smallflower flatsedge = assay: Test B flood test smallflower flatsedge; assay type: in vivo, Cyperus difformis
How it was run: (§2)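 Each value is a visual injury score relative to controls, with 10 meaning complete control and 0 no effect. Evaluation took place twelve to sixteen days after the 2-leaf-stage plants were treated and kept in the greenhouse.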

sugar beet = assay: Test B pre/postemergence sugar beet; assay type: in vivo, Beta vulgaris
How it was run: as §1

bamyardgrass = assay: Test B flood test barnyardgrass; assay type: in vivo, Echinochloa crus-galli
How it was run: as §2

wild oat = assay: Test B pre/postemergence wild oat; assay type: in vivo, Avena fatua
How it was run: as §1

blackgrass = assay: Test B pre/postemergence blackgrass; assay type: in vivo, Alopecurus myosuroides
How it was run: as §1

pigweed = assay: Test B pre/postemergence pigweed; assay type: in vivo, Amaranthus retroflexus
How it was run: as §1

giant foxtail = assay: Test B pre/postemergence giant foxtail; assay type: in vivo, Setaria faberii
How it was run: as §1

wheat = assay: Test B pre/postemergence wheat; assay type: in vivo, Triticum aestivum
How it was run: as §1

surinam grass = assay: Test B pre/postemergence surinam grass; assay type: in vivo, Brachiaria decumbens
How it was run: as §1

cocklebur = assay: Test B pre/postemergence cocklebur; assay type: in vivo, Xanthium strumarium
How it was run: as §1

duck salad = assay: Test B flood test duck salad; assay type: in vivo, Heteranthera limosa
How it was run: as §2

rape = assay: Test B pre/postemergence rape; assay type: in vivo, Brassica napus
How it was run: as §1

bedstraw = assay: Test B pre/postemergence bedstraw; assay type: in vivo, Galium aparine
How it was run: as §1

[1] = Postemergence, Rate 125 g/ha, scale of 0 to 10 where 0 is no effect and 10 is complete control
[2] = Preemergence, Rate 62 g/ha, scale 0 to 10 (0 no effect, 10 complete control)
[3] = Preemergence, Rate 125 g/ha, 0 is no effect, 10 is complete control
[4] = Preemergence, Rate 250 g/ha, scale 0 to 10, 0 is no effect, 10 is complete control
[5] = Preemergence, Rate 500 g/ha, scale 0 to 10 (0 no effect, 10 complete control)
[6] = Rate 62 g/ha, Postemergence, scale of 0 to 10 where 0 is no effect and 10 is complete control
[7] = Rate 250 g/ha, Postemergence, scale 0 to 10, 0 is no effect, 10 is complete control
[8] = Rate 500 g/ha, Postemergence, scale 0 to 10, 0 no effect, 10 complete control
[9] = Postemergence (flood test species), Rate 125 g/ha, scale of 0 to 10 where 0 is no effect and 10 is complete control
[10] = Rate 62 g/ha, Postemergence section, flood test species, scale of 0 to 10 where 0 is no effect and 10 is complete control
[11] = Rate 250 g/ha, Postemergence (flood test), scale 0 to 10, 0 is no effect, 10 is complete control
[12] = Rate 250 g/ha, headed Pre-emergence (flood test species), scale 0 to 10 (0 no effect, 10 complete control)
[13] = Rate 500 g/ha, headed Pre-emergence (flood test species), scale 0 to 10 (0 no effect, 10 complete control)
[14] = Rate 500 g/ha, listed under Postemergence (flood test species), scale 0 to 10, 0 no effect, 10 complete control
[15] = Rate 2000 g/ha, Pre-emergence (as headed), scale 0 to 10
[16] = Postemergence, Rate 62 g/ha, scale 0 to 10, 0 is no effect, 10 is complete control
[17] = Rate 1000 g/ha, Pre-emergence (as headed), scale 0 to 10

CC(C)N(C(=O)n1oc(=O)n(-c2ccnn2C)c1=O)c1ccc(F)cc1 [Compound 124]
Nutsedge plant response rating (purple nutsedge; [1]): 0
Nutsedge plant response rating (purple nutsedge; [2]): 0
Nutsedge plant response rating (0 to 10 scale) (purple nutsedge; [3]): 0
Nutsedge plant response rating (purple nutsedge; [4]): 0
Nutsedge plant response rating (purple nutsedge; [5]): 0
Nutsedge plant response rating (purple nutsedge; [6]): 0
Plant response rating, Nutsedge (purple nutsedge; [7]): 0
Nutsedge plant response rating (purple nutsedge; [8]): 0
Morningglory plant response rating (morningglory; [1]): 0
Morningglory plant response rating (morningglory; [2]): 0
Morningglory plant response rating (0 to 10 scale) (morningglory; [3]): 0
Morningglory plant response rating (morningglory; [4]): 0
Morningglory plant response rating (morningglory; [5]): 0
Morningglory plant response rating (morningglory; [6]): 0
Plant response rating, Morningglory (morningglory; [7]): 0
Morningglory plant response rating (morningglory; [8]): 2
Soybean plant response rating (soybean; [1]): 3
Soybean plant response rating (soybean; [2]): 0
Soybean plant response rating (0 to 10 scale) (soybean; [3]): 0
Soybean plant response rating (soybean; [4]): 0
Soybean plant response rating (soybean; [5]): 0
Soybean plant response rating (soybean; [6]): 0
Plant response rating, Soybean (soybean; [7]): 4
Soybean plant response rating (soybean; [8]): 5
S. Flatsedge plant response rating (smallflower flatsedge; [9]): 0
S. Flatsedge plant response rating (smallflower flatsedge; Pre-emergence, Rate 1000 g/ha, scale 0 to 10 (0 no effect, 10 complete control)): 0
S. Flatsedge plant response rating (smallflower flatsedge; [10]): 0
Plant response rating, S. Flatsedge (smallflower flatsedge; [11]): 0
S. Flatsedge plant response rating (smallflower flatsedge; [12]): 0
Plant response rating, S. Flatsedge (smallflower flatsedge; [13]): 0
S. Flatsedge plant response rating (smallflower flatsedge; [14]): 0
S. Flatsedge plant response rating (smallflower flatsedge; [15]): 0
Sugarbeets plant response rating (sugar beet; [1]): 0
Sugarbeets plant response rating (sugar beet; [2]): 0
Sugarbeets plant response rating (0 to 10 scale) (sugar beet; [3]): 0
Sugarbeets plant response rating (sugar beet; [4]): 0
Sugarbeets plant response rating (sugar beet; [5]): 0
Sugarbeets plant response rating (sugar beet; [6]): 0
Plant response rating, Sugarbeets (sugar beet; [7]): 0
Sugarbeets plant response rating (sugar beet; [8]): 0
Barnyardgrass plant response rating (bamyardgrass; [9]): 0
Barnyardgrass plant response rating (bamyardgrass; [16]): 0
Plant response rating, Barnyardgrass (bamyardgrass; [11]): 0
Barnyardgrass plant response rating (bamyardgrass; [12]): 0
Plant response rating, Barnyardgrass (bamyardgrass; [13]): 0
Barnyardgrass plant response rating (bamyardgrass; [14]): 0
Barnyardgrass plant response rating (bamyardgrass; [17]): 0
Barnyardgrass plant response rating (bamyardgrass; Rate 2000 g/ha, Pre-emergence (as headed), scale 0 to 10, 0 no effect, 10 complete control): 0
Wild oats plant response rating (wild oat; [1]): 0
Wild oats plant response rating (wild oat; [2]): 0
Wild oats plant response rating (0 to 10 scale) (wild oat; [3]): 0
Wild oats plant response rating (wild oat; [4]): 0
Wild oats plant response rating (wild oat; [5]): 0
Wild oats plant response rating (wild oat; [6]): 0
Plant response rating, Wild oats (wild oat; [7]): 0
Wild oats plant response rating (wild oat; [8]): 0
Blackgrass plant response rating (blackgrass; [1]): 0
Blackgrass plant response rating (blackgrass; [2]): 0
Blackgrass plant response rating (0 to 10 scale) (blackgrass; [3]): 0
Blackgrass plant response rating (blackgrass; [4]): 0
Blackgrass plant response rating (blackgrass; [5]): 0
Blackgrass plant response rating (blackgrass; [6]): 0
Plant response rating, Blackgrass (blackgrass; [7]): 0
Blackgrass plant response rating (blackgrass; [8]): 0
Redroot pigweed plant response rating (pigweed; [1]): 0
Redroot pigweed plant response rating (pigweed; [2]): 0
Redroot pigweed plant response rating (0 to 10 scale) (pigweed; [3]): 0
Redroot pigweed plant response rating (pigweed; [4]): 0
Redroot pigweed plant response rating (pigweed; [5]): 0
Redroot pigweed plant response rating (pigweed; [6]): 0
Plant response rating, Redroot pigweed (pigweed; [7]): 0
Redroot pigweed plant response rating (pigweed; [8]): 0
Giant foxtail plant response rating (giant foxtail; [1]): 0
Giant foxtail plant response rating (giant foxtail; [2]): 0
Giant foxtail plant response rating (0 to 10 scale) (giant foxtail; [3]): 0
Giant foxtail plant response rating (giant foxtail; [4]): 0
Giant foxtail plant response rating (giant foxtail; [5]): 0
Giant foxtail plant response rating (giant foxtail; [6]): 0
Plant response rating, Giant foxtail (giant foxtail; [7]): 0
Giant foxtail plant response rating (giant foxtail; [8]): 0
Wheat plant response rating (wheat; [1]): 0
Wheat plant response rating (wheat; [2]): 0
Wheat plant response rating (0 to 10 scale) (wheat; [3]): 0
Wheat plant response rating (wheat; [4]): 0
Wheat plant response rating (wheat; [5]): 0
Wheat plant response rating (wheat; [6]): 0
Plant response rating, Wheat (wheat; [7]): 0
Wheat plant response rating (wheat; [8]): 0
B. signalgrass plant response rating (surinam grass; [16]): 0
B. signalgrass plant response rating (surinam grass; [1]): 0
B. signalgrass plant response rating (surinam grass; [2]): 0
B. signalgrass plant response rating (0 to 10 scale) (surinam grass; [3]): 0
B. signalgrass plant response rating (surinam grass; [4]): 0
B. signalgrass plant response rating (surinam grass; [5]): 0
Plant response rating, B. signalgrass (surinam grass; [7]): 0
B. signalgrass plant response rating (surinam grass; Rate 500 g/ha, Postemergence, scale of 0 to 10 where 0 is no effect and 10 is complete control): 0
Cocklebur plant response rating (cocklebur; [1]): 0
Cocklebur plant response rating (cocklebur; [2]): 0
Cocklebur plant response rating (cocklebur; [4]): 0
Cocklebur plant response rating (cocklebur; [5]): 0
Cocklebur plant response rating (cocklebur; [6]): 0
Plant response rating, Cocklebur (cocklebur; [7]): 0
Cocklebur plant response rating (cocklebur; [8]): 0
Ducksalad plant response rating (duck salad; [9]): 0
Ducksalad plant response rating (duck salad; [10]): 0
Plant response rating, Ducksalad (duck salad; [11]): 0
Ducksalad plant response rating (duck salad; [12]): 0
Plant response rating, Ducksalad (duck salad; [13]): 0
Ducksalad plant response rating (duck salad; [14]): 0
Ducksalad plant response rating (duck salad; [17]): 0
Ducksalad plant response rating (duck salad; [15]): 0
Rape plant response rating (rape; [1]): 0
Rape plant response rating (rape; [2]): 0
Rape plant response rating (0 to 10 scale) (rape; [3]): 0
Rape plant response rating (rape; [4]): 0
Rape plant response rating (rape; [5]): 0
Rape plant response rating (rape; [6]): 0
Plant response rating, Rape (rape; [7]): 0
Rape plant response rating (rape; [8]): 0
Bedstraw plant response rating (bedstraw; [2]): 0
Bedstraw plant response rating (0 to 10 scale) (bedstraw; [3]): 0
Bedstraw plant response rating (bedstraw; [4]): 0
Bedstraw plant response rating (bedstraw; [5]): 0
Bedstraw plant response rating (bedstraw; [8]): 0
